Data as given in ChEMBL document CHEMBL1154434, “Novel keto-enamine Schiffs bases from 7-hydroxy-4-methyl-2-oxo-2H-benzo[h] chromene-8,10-dicarbaldehyde as potential antidyslipidemic and antioxidant agents” (2008).

Key:
Assay type in all cases: functional
[1] = Antioxidant activity assessed as inhibition of microsomal lipid peroxidation at 100 ug/mL
Rattus norvegicus [2] = test: Antidyslipidemic activity in WR-1339-induced hyperlipidemic Charles Foster rat assessed as reduction in plasma phospholipid level at 100 mg/kg, po after 18 hrs; design: scale not given: the % may be the effect or the level left
Rattus norvegicus [3] = test: Antidyslipidemic activity in WR-1339-induced hyperlipidemic Charles Foster rat assessed as reduction in plasma triglyceride level at 100 mg/kg, po after 18 hrs; design: scale not given: the % may be the effect or the level left
Rattus norvegicus [4] = test: Antidyslipidemic activity in WR-1339-induced hyperlipidemic Charles Foster rat assessed as reduction in plasma cholesterol level at 100 mg/kg, po after 18 hrs; design: scale not given: the % may be the effect or the level left
[5] = Antioxidant activity assessed as inhibition of superoxide at 20 ug/mL
[6] = Antioxidant activity assessed as inhibition of superoxide at 100 ug/mL
[7] = Antioxidant activity assessed as inhibition of hydroxyl radical at 100 ug/mL

SMILES | inhibition [1] [%] | Activity (Rattus norvegicus [2]) [%] | Activity (Rattus norvegicus [3]) [%] | Activity (Rattus norvegicus [4]) [%] | inhibition [5] [%] | inhibition [6] [%] | inhibition [7] [%]
CCCCN/C=C1/C=C(C=O)c2c(ccc3c(C)cc(=O)oc23)C1=O | 37 | – | – | – | – | – | –
Cc1cc(=O)oc2c3c(ccc12)C(=O)/C(=C\NCCC1CNCCO1)C=C3C=O (stereo not given) | 31 | 21 | 25 | 20 | – | – | –
Oc1ncnc2[nH]ncc12 | – | – | – | – | 90 | – | –
Cc1cc(=O)oc2c1ccc1c(O)c(C=O)cc(C=O)c12 | 27 | 25 | 21 | 23 | – | 72 | 52
OC[C@@H](O)[C@@H](O)[C@H](O)[C@H](O)CO | 45 | – | – | – | – | – | 48
Cc1ccc(C)c(OCCCC(C)(C)C(=O)O)c1 [GEMFIBROZIL] | – | 32 | 34 | 33 | – | – | –
Cc1c(C)c2c(c(C)c1O)CC[C@@](C)(CCC[C@H](C)CCC[C@H](C)CCCC(C)C)O2 | 45 | – | – | – | – | – | 48
CCCCCCCN/C=C1/C=C(C=O)c2c(ccc3c(C)cc(=O)oc23)C1=O | 34 | 20 | 22 | 24 | – | 45 | 49
